Legend:
[1] = test system: HCT-116; test: Antiproliferative activity against human HCT116 cells incubated for 48 hrs by SRB assay; assay type: functional; details: HCT-116, 48 h
[2] = test system: MDA-MB-231; test: Antiproliferative activity against human MDA-MB-231 cells incubated for 48 hrs by SRB assay; assay type: functional; details: MDA-MB-231, 48 h

Row | Compound | GI50 [1] [µM] | GI50 [2] [µM]
1 | O=C(Nc1ccc2[nH]ccc2c1)c1ccc(CNC2=C(Cl)C(=O)c3ccccc3C2=O)cc1 | > 10 | > 10
2 | O=C(Nc1ccc2cn[nH]c2c1)c1ccc(CNC2=C(Cl)C(=O)c3ccccc3C2=O)cc1 | > 10 | > 10
